Consider 24 compounds from patent publication US20070004660A1, “Synergistic Modulation of Flt3 Kinase Using Alkylquinolines and Alkylquinazolines” (priority 2005, published 2007).

Assay [1] relates to MV4-11 cells. The assay is described as follows: Inhibition of MV4-11 cell proliferation (CellTiterGlo, 72 h). It counts as cell-based. The settings on record: Homo sapiens; 72 h growth inhibition; uncertainty ±20%. As to the method: MV4-11 cells cannot grow and survive without active FLT3ITD.
To measure proliferation inhibition by test compounds, the luciferase based CellTiterGlo reagent (Promega), which quantifies total cell number based on total cellular ATP concentration, was used. Cells are plated at 10,000 cells per well in 100 ul of in RPMI media containing penn/strep, 10% FBS and 1 ng/ml GM-CSF or 1 ng/ml IL-3 for MV4-11 and Baf3 cells respectively.
Compound dilutions or 0.1% DMSO (vehicle control) are added to cells and the cells are allowed to grow for 72 hours at standard cell growth conditions (37° C., 5% CO2). For activity measurements in MV4-11 cells grown in 50% plasma, cells were plated at 10,000 cells per well in a 1:1 mixture of growth media and human plasma (final volume of 100 μL). To measure total cell growth an equal volume of CellTiterGlo reagent was added to each well, according to the manufacturer's instructions, and luminescence was quantified. Total cell growth was quantified as the difference in luminescent counts (relative light units, RLU) of cell number at Day 0 compared to total cell number at Day 3 (72 hours of growth and/or compound treatment). One hundred percent inhibition of growth is defined as an RLU equivalent to the Day 0 reading. Zero percent inhibition was defined as the RLU signal for the DMSO vehicle control at Day 3 of growth. All data points are an average of triplicate samples. […] Inhibition and IC50 data analysis was done with GraphPad Prism using a non-linear regression fit with a multiparamater, sigmoidal dose-response (variable slope) equation.
MV4-11 cells express the FLT3 internal tandem duplication mutation, and thus are entirely dependent upon FLT3 activity for growth. […] In contrast, the Baf3 cell proliferation is driven by the cytokine IL-3 and thus are used as a non-specific toxicity control for test compounds.
(Cellular ATP, detected with luciferase, serves as a proxy for viable cell number.)

The target in assay [2] is T1, isolated kinase domain of the human FLT3 receptor (a.a. 571-993) (Homo sapiens, UniProt P36888).
T1 construct: human FLT3 receptor (a.a. 571-993)
T1 sequence (P36888 571-993): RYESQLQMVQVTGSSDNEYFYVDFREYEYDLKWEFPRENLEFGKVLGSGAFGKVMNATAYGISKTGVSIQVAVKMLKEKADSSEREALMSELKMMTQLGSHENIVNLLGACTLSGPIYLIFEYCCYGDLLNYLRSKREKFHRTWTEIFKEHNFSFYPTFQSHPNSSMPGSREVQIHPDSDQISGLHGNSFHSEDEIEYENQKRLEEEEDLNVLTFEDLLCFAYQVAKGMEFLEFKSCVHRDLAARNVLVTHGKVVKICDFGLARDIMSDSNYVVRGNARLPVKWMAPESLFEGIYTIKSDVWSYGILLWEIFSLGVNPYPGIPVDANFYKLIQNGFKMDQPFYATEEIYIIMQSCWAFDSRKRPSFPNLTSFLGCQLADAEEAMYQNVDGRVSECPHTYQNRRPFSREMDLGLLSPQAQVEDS
The assay is described as follows: FLT3 fluorescence polarization kinase assay. It counts as biochemical. As to conditions: 150 uM ATP; uncertainty ±10%. The method, then:
The FLT3 FP assay utilizes the fluorescein-labeled phosphopeptide and the anti-phosphotyrosine antibody included in the Panvera Phospho-Tyrosine Kinase Kit (Green) supplied by Invitrogen. When FLT3 phosphorylates polyGlu4Tyr, the fluorescein-labeled phosphopeptide is displaced from the anti-phosphotyrosine antibody by the phosphorylated poly Glu4Tyr, thus decreasing the FP value. The FLT3 kinase reaction is incubated at room temperature for 30 minutes under the following conditions: 10 nM FLT3 571-993, 20 ug/mL poly Glu4Tyr, 150 uM ATP, 5 mM MgCl2, 1% compound in DMSO. The kinase reaction is stopped with the addition of EDTA. The fluorescein-labeled phosphopeptide and the anti-phosphotyrosine antibody are added and incubated for 30 minutes at room temperature.
All data points are an average of triplicate samples. Inhibition and IC50 data analysis was done with GraphPad Prism using a non-linear regression fit with a multiparamater, sigmoidal dose-response (variable slope) equation.
Background: In fluorescence polarisation assays a small probe gives low polarisation when free and higher when bound to something large.

As a reminder, the IC50 is the concentration at which inhibition is half-maximal. Read a low IC50 as greater potency in that assay.

Take `COc1cc2ncnc(C3CCN(C(=O)Nc4ccc(C(C)C)cc4)CC3)c2cc1OC` [Example 4, 4-(6,7-Dimethoxy-quinazolin-4-yl)-piperidine-1-carboxylic acid (4-isopropyl-phenyl)-amide]: the figures for the IC50 in assay [1] and in assay [2] were 86 nM and 9 nM, respectively.
With `CC(C)Oc1ccc(NC(=O)N2CCC(c3ccnc4ccccc34)CC2)cc1` [Example 6, 4-Quinolin-4-yl-piperidine-1-carboxylic acid (4-isopropoxy-phenyl)-amide], the IC50 in assay [1] was determined as 280 nM; in assay [2], 84 nM.
For `CC(C)c1ccc(NC(=O)N2CCC(c3ncnc4ccccc34)CC2)cc1` [Example 7, 4-Quinazolin-4-yl-piperidine-1-carboxylic acid (4-isopropyl-phenyl)-amide], in that order: 232 nM and 55 nM.
On to `CC(C)Oc1ccc(NC(=O)N2CCC(c3ncnc4ccccc34)CC2)cc1` [Example 8, 4-Quinazolin-4-yl-piperidine-1-carboxylic acid (4-isopropoxy-phenyl)-amide], for which the IC50 in assay [1] worked out at 533 nM; in assay [2] it was 200 nM.
Taken in the same sequence, the figures for `COc1cc2ncnc(C3CCN(CC(=O)Nc4ccc(C(C)C)cc4)CC3)c2cc1OC` [Example 9, 2-[4-(6,7-Dimethoxy-quinazolin-4-yl)-piperidin-1-yl]-N-(4-isopropyl-phenyl)-acetamide] were 29 nM and 13 nM.
Taken in the same sequence, the figures for `COc1cc2ncnc(C3CCN(CC(=O)Nc4ccc(OC(C)C)cc4)CC3)c2cc1OC` [Example 10, 2-[4-(6,7-Dimethoxy-quinazolin-4-yl)-piperidin-1-yl]-N-(4-isopropoxy-phenyl)-acetamide] were 171 nM and 42 nM.
Taken in the same sequence, the figures for `CC(C)Oc1ccc(NC(=O)N2CCC(c3ncnc4ccc(I)cc34)CC2)cc1` [Example 11, 4-(6-Iodo-quinazolin-4-yl)-piperidine-1-carboxylic acid (4-isopropoxy-phenyl)-amide] were 460 nM and 46 nM.
Turning to `CC(C)Oc1ccc(NC(=O)N2CCC(c3ncnc4ccc(C#CCO)cc34)CC2)cc1` [Example 12, 4-[6-(3-Hydroxy-prop-1-ynyl)-quinazolin-4-yl]-piperidine-1-carboxylic acid (4-isopropoxy-phenyl)-amide], the results for the IC50 in assay [1] and in assay [2] were 149 nM and 32 nM, respectively.
Turning to `CCN(CC)CC#Cc1ccc2ncnc(C3CCN(C(=O)Nc4ccc(OC(C)C)cc4)CC3)c2c1` [Example 13, 4-[6-(3-Diethylamino-prop-1-ynyl)-quinazolin-4-yl]-piperidine-1-carboxylic acid (4-isopropoxy-phenyl)-amide], the figures for the IC50 in assay [1] and in assay [2] were 59 nM and 72 nM, respectively.
Taken in the same sequence, the figures for `CC(C)Oc1ccc(NC(=O)N2CCC(c3ncnc4ccc(C#CCN5CCCCC5)cc34)CC2)cc1` [Example 14, 4-[6-(3-Piperidin-1-yl-prop-1-ynyl)-quinazolin-4-yl]-piperidine-1-carboxylic acid (4-isopropoxy-phenyl)-amide] were 23 nM and 53 nM.
For `CCCCc1ccc(NC(=O)N2CCC(c3ncnc4cc(OC)c(OC)cc34)CC2)cc1` [Example 43, 4-(6,7-Dimethoxy-quinazolin-4-yl)-piperidine-1-carboxylic acid (4-butyl-phenyl)-amide], in that order: 197 nM and 24 nM.
Taken in the same sequence, the figures for `CCOc1ccc(NC(=O)N2CCC(c3ncnc4cc(OC)c(OC)cc34)CC2)cc1` [Example 44, 4-(6,7-Dimethoxy-quinazolin-4-yl)-piperidine-1-carboxylic acid (4-ethoxy-phenyl)-amide] were 725 nM and 150 nM.
For `COc1cc2ncnc(C3CCN(C(=O)Nc4ccccc4)CC3)c2cc1OC` [Example 45, 4-(6,7-Dimethoxy-quinazolin-4-yl)-piperidine-1-carboxylic acid phenylamide], the results for the IC50 in assay [1] and in assay [2] were 16700 nM and 3700 nM, respectively.
Taken in the same sequence, the figures for `COc1cc2ncnc(C3CCN(C(=O)Nc4ccc(Oc5ccccc5)cc4)CC3)c2cc1OC` [Example 47, 4-(6,7-Dimethoxy-quinazolin-4-yl)-piperidine-1-carboxylic acid (4-phenoxy-phenyl)-amide] were 122 nM and 35 nM.
For `COc1cc2ncnc(C3CCN(C(=O)Nc4ccc(OC(F)F)cc4)CC3)c2cc1OC` [Example 51, 4-(6,7-Dimethoxy-quinazolin-4-yl)-piperidine-1-carboxylic acid (4-difluoromethoxy-phenyl)-amide], in that order: 306 nM and 160 nM.
Taken in the same sequence, the figures for `CCC(C)c1ccc(NC(=O)N2CCC(c3ncnc4cc(OC)c(OC)cc34)CC2)cc1` (stereo not drawn) [Example 52, 4-(6,7-Dimethoxy-quinazolin-4-yl)-piperidine-1-carboxylic acid (4-sec-butyl-phenyl)-amide] were 7 nM and 19 nM.
Regarding `COc1cc2ncnc(C3CCN(C(=O)Nc4ccc(C(C)(C)C)cc4)CC3)c2cc1OC` [Example 53, 4-(6,7-Dimethoxy-quinazolin-4-yl)-piperidine-1-carboxylic acid (4-tert-butyl-phenyl)-amide], the IC50 was 48 nM in assay [1] and 15 nM in assay [2].
Turning to `COc1cc2ncnc(C3CCN(C(=O)NC4CCC(C(C)(C)C)CC4)CC3)c2cc1OC` (stereo not drawn) [Example 54, 4-(6,7-Dimethoxy-quinazolin-4-yl)-piperidine-1-carboxylic acid (4-tert-butyl-cyclohexyl)-amide], the IC50 in assay [1] came to 224 nM; in assay [2], 170 nM.
Taken in the same sequence, the figures for `COc1cc2ncnc(C3CCN(C(=O)Nc4ccc(C(C)O)cc4)CC3)c2cc1OC` (stereo not drawn) [Example 55, 4-(6,7-Dimethoxy-quinazolin-4-yl)-piperidine-1-carboxylic acid [4-(1-hydroxy-ethyl)-phenyl]-amide] were 2600 nM and 1100 nM.
For `COc1cc2ncnc(C3CCN(C(=O)Nc4ccc(OC(C)C)nc4)CC3)c2cc1OC` [Example 56, 4-(6,7-Dimethoxy-quinazolin-4-yl)-piperidine-1-carboxylic acid (6-isopropoxy-pyridin-3-yl)-amide], in that order: 189 nM and 30 nM.
In the case of `COc1cc2ncnc(C3CCN(C(=O)Nc4ccc(N5CCCC5=O)cc4)CC3)c2cc1OC` [Example 57, 4-(6,7-Dimethoxy-quinazolin-4-yl)-piperidine-1-carboxylic acid [4-(2-oxo-pyrrolidin-1-yl)-phenyl]-amide], the IC50 in assay [1] is 1200 nM; in assay [2] it was 700 nM.
For `COc1cc2ncnc(C3CCN(C(=O)Nc4ccc(-c5cncnc5)cc4)CC3)c2cc1OC` [Example 58, 4-(6,7-Dimethoxy-quinazolin-4-yl)-piperidine-1-carboxylic acid (4-pyrimidin-5-yl-phenyl)-amide], in that order: 2000 nM and 2000 nM.
For `COc1cc2ncnc(C3CCN(C(=O)Nc4ccc(-c5ccco5)cc4)CC3)c2cc1OC` [Example 59, 4-(6,7-Dimethoxy-quinazolin-4-yl)-piperidine-1-carboxylic acid (4-furan-2-yl-phenyl)-amide], in that order: 269 nM and 220 nM.
For `COc1cc2ncnc(C3CCN(C(=O)Nc4ccc(-c5ccc(Cl)nc5)cc4)CC3)c2cc1OC` [Example 60, 4-(6,7-Dimethoxy-quinazolin-4-yl)-piperidine-1-carboxylic acid [4-(6-chloro-pyridin-3-yl)-phenyl]-amide], in that order: 1400 nM and 360 nM.
